Consider 2 compounds from ChEMBL document CHEMBL3779821, “On the enthalpic preference of fragment binding” (Medchemcomm, 2016).

The Kd is the equilibrium constant for the complex coming apart. A lower Kd goes with higher affinity.

For this test, the target named is Macrophage metalloelastase (Homo sapiens, UniProt P39900). The experiment in a line: Binding affinity to MMP12 (unknown origin).
Chain of Macrophage metalloelastase (P39900 whole entry): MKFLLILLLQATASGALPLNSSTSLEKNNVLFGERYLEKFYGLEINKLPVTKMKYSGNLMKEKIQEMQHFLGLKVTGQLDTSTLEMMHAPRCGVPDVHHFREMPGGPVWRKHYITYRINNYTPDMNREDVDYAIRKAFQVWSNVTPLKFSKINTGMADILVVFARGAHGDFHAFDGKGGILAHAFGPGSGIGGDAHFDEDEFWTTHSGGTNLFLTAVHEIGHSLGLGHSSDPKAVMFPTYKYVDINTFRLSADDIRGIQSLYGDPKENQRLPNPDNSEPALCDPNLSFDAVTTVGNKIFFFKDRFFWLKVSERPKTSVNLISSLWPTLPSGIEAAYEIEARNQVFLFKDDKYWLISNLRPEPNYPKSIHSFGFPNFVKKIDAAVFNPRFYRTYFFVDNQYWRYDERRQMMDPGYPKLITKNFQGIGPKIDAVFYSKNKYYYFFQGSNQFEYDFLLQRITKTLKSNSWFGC

In the case of `CC(=O)NO` [ACETOHYDROXAMIC ACID], the Kd turned out to be 6.18 mM.
The compound `O=C(CNS(=O)(=O)c1ccccc1)NO` yielded a Kd of 6.11e-05 mM.
